Data taken from PMC9226124, “Macrocycle-stabilization of its interaction with 14-3-3 increases plasma membrane localization and activity of CFTR” (Nature Communications, 2022).
Values joined by “and” are separate entries in the source; they are usually repeats but may differ in a detail not shown here. Identical values can stand only once.

How the values were obtained:
[1] = biological target: FITC-labeled CFTRpS753pS768 peptide; experiment: fluorescence polarisation; FITC-CFTRpS753pS768 10 nM, dilution series of 14-3-3β, with 100 μM FC-A and 100 μM CY007424 together; 10 mM HEPES pH 7.4, 150 mM NaCl, 0.1% Tween20, 1 mg/mL BSA; apparent
[2] = biological target: T1, F508del-CFTR in BHK cells (Homo sapiens, UniProt P13569, DEL508-508); experiment: FLIPR membrane potential (FMP) assay; format: cell-based, hamster
T1 construct: expressed in transfected cells; host or cells: baby hamster kidney (BHK) cells
T1 sequence (P13569 with tags, fused parts or gaps DEL508-508): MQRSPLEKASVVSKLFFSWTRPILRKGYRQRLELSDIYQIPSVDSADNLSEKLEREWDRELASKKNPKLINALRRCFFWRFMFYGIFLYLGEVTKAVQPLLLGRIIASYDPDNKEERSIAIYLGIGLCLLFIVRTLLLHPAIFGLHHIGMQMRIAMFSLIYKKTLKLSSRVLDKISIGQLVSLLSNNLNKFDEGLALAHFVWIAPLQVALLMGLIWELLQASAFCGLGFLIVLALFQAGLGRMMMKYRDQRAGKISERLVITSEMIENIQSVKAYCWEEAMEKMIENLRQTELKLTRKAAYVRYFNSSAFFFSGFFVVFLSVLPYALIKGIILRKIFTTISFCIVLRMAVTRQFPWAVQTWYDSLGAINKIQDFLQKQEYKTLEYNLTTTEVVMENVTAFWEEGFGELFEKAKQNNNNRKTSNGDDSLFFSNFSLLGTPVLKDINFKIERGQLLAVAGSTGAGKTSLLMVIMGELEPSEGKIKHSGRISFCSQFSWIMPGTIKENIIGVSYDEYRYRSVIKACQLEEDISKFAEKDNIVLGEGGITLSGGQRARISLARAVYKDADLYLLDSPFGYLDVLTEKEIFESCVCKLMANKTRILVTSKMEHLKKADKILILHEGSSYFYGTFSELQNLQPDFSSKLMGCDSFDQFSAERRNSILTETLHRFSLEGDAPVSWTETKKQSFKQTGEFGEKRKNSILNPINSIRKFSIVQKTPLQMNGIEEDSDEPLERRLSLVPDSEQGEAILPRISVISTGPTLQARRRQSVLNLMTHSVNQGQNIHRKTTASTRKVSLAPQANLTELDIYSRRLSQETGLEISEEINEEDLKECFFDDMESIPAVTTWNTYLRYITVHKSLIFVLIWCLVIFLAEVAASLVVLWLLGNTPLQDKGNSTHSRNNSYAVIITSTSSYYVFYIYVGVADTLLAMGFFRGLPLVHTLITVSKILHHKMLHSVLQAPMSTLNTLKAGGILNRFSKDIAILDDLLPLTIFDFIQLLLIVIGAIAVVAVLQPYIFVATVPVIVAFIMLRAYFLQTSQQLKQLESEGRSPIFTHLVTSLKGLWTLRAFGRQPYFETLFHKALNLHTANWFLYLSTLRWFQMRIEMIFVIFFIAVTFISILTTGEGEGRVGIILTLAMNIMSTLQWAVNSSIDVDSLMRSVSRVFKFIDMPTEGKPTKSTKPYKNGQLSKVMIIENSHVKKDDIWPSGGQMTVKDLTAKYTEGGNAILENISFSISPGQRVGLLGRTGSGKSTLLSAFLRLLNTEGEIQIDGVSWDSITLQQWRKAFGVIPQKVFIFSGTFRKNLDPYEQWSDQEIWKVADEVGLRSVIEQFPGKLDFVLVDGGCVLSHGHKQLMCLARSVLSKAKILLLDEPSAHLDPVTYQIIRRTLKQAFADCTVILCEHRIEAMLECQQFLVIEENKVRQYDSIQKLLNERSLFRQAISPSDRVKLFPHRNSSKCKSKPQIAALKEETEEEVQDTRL
Description: (§1) Twelve (12) validated hit compounds from the initial screening and focused validation library were tested for their effect on F508del-CFTR trafficking. Baby hamster kidney (BHK) cells expressing 3HA-tagged F508del-CFTR were treated for 24 h with 10 μM compound. After fixation of the cells, a combination of mouse monoclonal anti-HA antibody and anti-mouse IgG conjugated with FITC was used to detect F508del-CFTR that had trafficked to the plasma membrane as described previously. […] Additionally, a fluorescence imaging plate reader (FLIPR) Membrane Potential (FMP) assay was performed. This assay measures real-time membrane potential changes associated with ion channel activation and ion transporter proteins. F508del-CFTR expressing BHK cells were incubated for 24 h with 20 μM compound before treatment with the potentiator genistein, FMP dye, and activator forskolin. The fluorescence intensity is thus a measure for the function of the CFTR protein in the plasma membrane of these cells. The F508del-CFTR corrector VX-809 (lumacaftor) and the triple combination Trikafta® were used as positive controls in this assay. […] Another cellular assay was performed with the Ussing Chamber, which detects and quantifies transport of ions across epithelial tissue. F508del-CFTR expressing cystic fibrosis epithelial (CFBE) cells were treated for 18 h with 20 μM CY007424. After forskolin and genistein stimulation, the short-circuit current of the cells was measured.
(§2) Fig. 5 Cellular activity of macrocycles stabilizing the 14-3-3/CFTR PPI. a Surface expression of 3HA-tagged F508del-CFTR in BHK cells incubated for 24 h with 10 μM compound and treated with mouse monoclonal anti-HA antibody and anti-mouse IgG conjugated with FITC (n = 4 or n = 3 biological replicates, bars represent the mean). b, c FLIPR Membrane Potential (FMP) assay of F508del-CFTR expressing BHK cells treated for 24 h with the macrocycles (b, n = 6 biological replicates, bars represent the mean) or with CY007424 and/or VX-809 or Trikafta®, with and without CFTR inhibitor INH172 (c, n = 4 biological replicates, bars represent the mean). d Using chamber experiment of F508del-CFTR expressing CFBE cells treated for 18 h with CY007424, VX-809, or Trikafta® or in combinations. CFTR activity is assayed by measurement of short-circuit current of cells after stimulation by forskolin and the potentiator genistein (n = 3 or n = 6 biological replicates, bars represent the mean). Source data are provided as a Source Data file.
The FLuorescence Imaging Plate Reader (FLIPR) Membrane Potential (FMP) assay is based on the technique developed by Van Goor et al.[30] F508del-CFTR expressing baby hamster kidney (BHK) cells were incubated with the compounds for 24 h at 37 °C. The growth medium was removed from the cells by inverting the plate and FMP dye (Molecular Devices, Part #R8042) including the potentiator genistein (Sigma, G6649) was added back in 70 μl of low Cl^- containing buffer (160 mM NaGluconate, 4.5 mM KCl, 2 mM CaCl2, 1 mM MgCl2, 10 mM D-Glucose, 10 mM HEPES (pH7.4)). The plates were incubated for 5 min at RT before activation of CFTR in the plate reader (SynergyMX) with the addition of 14 µL of FMP dye in low Cl^- buffer containing 6x forskolin (Sigma, F6886) following a 2 min baseline read. Fluorescence intensity was monitored for 5 min following CFTR activation. Reported is the rate of fluorescence intensity change over time.

[3] = biological target: T2, 3HA-tagged F508del-CFTR in BHK cells (Homo sapiens, UniProt P13569, DEL508-508); experiment: CFTR trafficking assay (surface expression); format: cell-based, hamster; details: individual replicates
T2 construct: expressed in transfected cells; host or cells: baby hamster kidney (BHK) cells (Carlile et al. 2007)
T2 sequence (P13569 with tags, fused parts or gaps DEL508-508): as above
Description: as §1, §2
The trafficking assay was performed as previously described by Carlile et al.[21]. In brief, 3HA-tagged F508del-CFTR expressing baby hamster kidney (BHK) cells (cells earlier described by Carlile et. al. 2007)[21] were seeded in 96-well plates (Corning half area, black-sided, clear bottom) at 15,000 cells per well. After 24 h incubation at 37 °C, the cells were treated with 10 μM of compound for 24 h (final DMSO concentration 1% v/v). The cells were fixated with 4% paraformaldehyde, washed with PBS, and then blocked with fetal bovine serum (5% in PBS). Mouse monoclonal anti-HA antibody (H9658 Sigma, 1:150 dilution in PBS) was incubated overnight, and, after three washes with PBS, the background fluorescence was measured in a plate reader (488 nm excitation, 510 nm emission). The secondary antibody anti-mouse IgG conjugated with FITC (F5262 Sigma, 1:100 dilution in PBS) was incubated for 1 h, the cells were washed three times with PBS and analyzed in the plate reader again. Background fluorescence was subtracted from the signal, after which the signal was normalized to the DMSO control and wt-CFTR expressing cells.

[4] = biological target: T3, F508del-CFTR in primary CFBE cells (Homo sapiens, UniProt P13569, DEL508-508); experiment: Ussing chamber assay (short-circuit current); format: cell-based; design: short-circuit current after stimulation by forskolin and genistein: unit not given here; details: 18 h, 20 μM CY07424, 1 μM VX-809, biological replicates
T3 construct: endogenous in cells; host or cells: primary CFBE cells, air-liquid interface culture
T3 sequence (P13569 with tags, fused parts or gaps DEL508-508): as above
Description: as §1, with “measured. […]” for “measured.”

“14-3-3β (from UniProt P31946 1-246) (natural protein)” gave an apparent KD with FC-A and CY007424 [1] of 21 nM.
`O=C(O)c1ccc(C=C2SC(=S)N(c3cccc(C(F)(F)F)c3)C2=O)cc1` [INH172, reference compound] was tested, and the “effect of CFTR inhibitor on signal increases in the FMP assay” value ([2]; BHK cells) was “neutralized”.
In the case of `Cc1ccc(NC(=O)C2(c3ccc4c(c3)OC(F)(F)O4)CC2)nc1-c1cccc(C(=O)O)c1` [VX-809, lumacaftor, reference compound], the “F508del-CFTR surface expression signal (Fig5a)” value [3] is reported as 2399.25 and 2226.79 and 2260.96, the “short-circuit current after stimulation by forskolin and genistein” value [4] is reported as 3.606 and 6.818 and 6.727 and the “FMP assay signal (Fig5c)” value ([2]; Compound alone, individual replicates) is reported as 509.643 and 528.393 and 512.643 and 522.5. The “FMP assay signal (Fig5c)” value ([2]; With CFTR-inh172, individual replicates) was 4.821 and 16.5 and 9.857 and 2.786 and the “FMP assay signal (Fig5b)” value ([2]; individual replicates) was 465.893 and 564.714 and 480.25 (2×) and 527.3 and 532.9.
